From ChEMBL document CHEMBL2010696, “Discovery, optimisation and in vivo evaluation of novel GPR119 agonists” (Bioorg Med Chem Lett, 2011)
Converted amounts (≈) assume the structure as drawn. One block for each compound: values may come before it.

Legend:
physchem [1] = settings: octanol/water
Description: Lipophilicity, log D of the compound

in vitro [2] = settings: human, plasma
Description: Fraction unbound in human plasma

in vivo [3] = settings: mouse, po, 5 mg/kg
Description: Cmax in mouse at 5 mg/kg, po

in vivo [4] = settings: rat, po, 5 mg/kg
Description: Cmax in rat at 5 mg/kg, po

in vivo [5] = settings: dog, po, 13 mg/kg
Description: Oral bioavailability in dog at 13 mg/kg

in vivo [6] = settings: dog, po, 13 mg/kg; remark: listed apart in the source
Description: Half life in dog at 13 mg/kg, po

in vivo [7] = settings: mouse, iv, 2 mg/kg
Description: Volume of distribution at steady state in mouse at 2 mg/kg, iv and 5 mg/kg, po

in vivo [8] = settings: rat, po, 5 mg/kg; remark: listed apart in the source
Description: Half life in rat at 5 mg/kg, po

in vitro [9] = settings: mouse, plasma
Description: Fraction unbound in mouse plasma

in vivo [10] = settings: rat, po, 5 mg/kg; remark: listed apart in the source
Description: Oral bioavailability in rat at 5 mg/kg

in vitro [11] = settings: dog, plasma
Description: Fraction unbound in dog plasma

in vivo [12] = settings: rat, iv, 2 mg/kg
Description: Volume of distribution at steady state in rat at 2 mg/kg, iv and 5 mg/kg, po

in vivo [13] = settings: dog, po, 13 mg/kg; remark: listed apart in the source
Description: Cmax in dog at 13 mg/kg, po

in vivo [14] = settings: dog, iv, 2 mg/kg
Description: Volume of distribution at steady state in dog at 2 mg/kg, iv and 13 mg/kg, po

physchem [15] = test: physchem
Description: Solubility of the compound

in vivo [16] = settings: mouse, po, 5 mg/kg; remark: listed apart in the source
Description: Oral bioavailability in mouse at 5 mg/kg

in vitro [17] = settings: dog, MDCK
Description: Apparent permeability across apical to basolateral side in dog MDCK cells at 10 uM

in vivo [18] = settings: rat, iv, 2 mg/kg; remark: listed apart in the source
Description: Half life in rat at 2 mg/kg, iv

in vitro [19] = settings: rat, plasma
Description: Fraction unbound in rat plasma

in vivo [20] = settings: dog, iv, 2 mg/kg; remark: listed apart in the source
Description: Half life in dog at 2 mg/kg, iv

in vivo [21] = settings: mouse, iv, 2 mg/kg; remark: listed apart in the source
Description: Half life in mouse at 2 mg/kg, iv

in vivo [22] = settings: dog, iv, 2 mg/kg; remark: listed apart in the source
in vivo [23] = settings: rat, plasma, iv, 2 mg/kg
in vivo [24] = settings: mouse, po, 5 mg/kg; remark: listed apart in the source
Description: Half life in mouse at 5 mg/kg, po

in vitro [25] = settings: human, Caco-2
in vivo [26] = settings: mouse, plasma, iv, 2 mg/kg

SMILES: CN(C(=O)Cc1ccc(-n2cnnn2)cc1)[C@@H]1CCN(Cc2ccc(C(F)(F)F)cc2)C[C@@H]1F
logD (physchem [1]): 3.3

SMILES: CN(C(=O)Cc1ccc(-n2cnnn2)cc1)C1CCN(Cc2ccc(C(F)(F)F)cc2)CC1
fraction unbound (in vitro [2]): 0.076 | Cmax (in vivo [3]): 2200 nM | Cmax (in vivo [4]): 2400 nM | bioavailability (in vivo [5]): 35% | half-life (in vivo [6]): 18 h | Vd (in vivo [7]): 2 L/kg | half-life (in vivo [8]): 2.8 h | fraction unbound (in vitro [9]): 0.099 | bioavailability (in vivo [10]): 66% | fraction unbound (in vitro [11]): 0.068 | Vd (in vivo [12]): 1.4 L/kg | Cmax (in vivo [13]): 6400 nM | Vd (in vivo [14]): 2.3 L/kg | solubility (physchem [15]): 18 µM (≈ 8.25 µg/mL) | logD (physchem [1]): 3 | bioavailability (in vivo [16]): 64% | Papp A→B at 10 µM (in vitro [17]): 17 ×10⁻⁶ cm/s | half-life (in vivo [18]): 2.8 h | fraction unbound (in vitro [19]): 0.081 | half-life (in vivo [20]): 20 h | half-life (in vivo [21]): 2.2 h | clearance (in vivo [22]): 1.3 mL/min/kg | clearance (in vivo [23]): 6.8 mL/min/kg | half-life (in vivo [24]): 2.4 h | Papp A→B at 10 µM (in vitro [25]): 57 ×10⁻⁶ cm/s | clearance (in vivo [26]): 12 mL/min/kg

SMILES: Cc1nc(-c2ccc(CN3CCC(N(C)C(=O)Cc4ccc(-n5cnnn5)cc4)CC3)cc2)no1
logD (physchem [1]): 2.1

SMILES: CO[C@H]1CN(Cc2ccc(C(F)(F)F)cc2)CC[C@H]1N(C)C(=O)Cc1ccc(-n2cnnn2)cc1
logD (physchem [1]): 3

Continued, values first:

logD (physchem [1]): 3.1
SMILES: CO[C@@H]1CN(Cc2ccc(C(F)(F)F)cc2)CC[C@@H]1N(C)C(=O)Cc1ccc(-n2cnnn2)cc1

logD (physchem [1]): 3.3
SMILES: CN(C(=O)Cc1ccc(-n2cnnn2)cc1)[C@H]1CCN(Cc2ccc(C(F)(F)F)cc2)C[C@H]1F
